Test results as given in patent US8367659B2, “Oxazinyl isoflavonoid compounds, medicaments and use” (Marshall Edwards, Inc., priority 2007, dated 2013).
Marks after values point to notes of the source that are not given here.

How the values were obtained:
cancer cell lines = assay: Anti-cancer activity, cancer cell lines tested as a group (MTT); format: cell-based; details: read-out: IC50 against all cancer cell lines tested
PMA-induced ear oedema = assay: PMA-induced ear swelling in mice; format: in vivo, BALB/c mice; details: 25 mg/kg i/p; 5 h after PMA
Description: Groups of 5-6 female BALB/c mice (ARC, WA, Australia), weighing 15-21 g were injected intraperitoneally (i/p) with test compound at 25 mg/kg delivered in polyethylene glycol (PEG) 400: phosphate buffered saline (PBS) 1:1 or ethanol: propanediol: PBS 4:9:7 either 30 min prior to or immediately before the inflammogen was applied to the ears. Mice were anaesthetised using isoflurane and baseline thickness of both ears was measured using a spring micrometer. Each mouse received a total of 20 μL of either AA in ethanol (50 mg/ml or 200 mg/ml) or PMA in either ethanol or acetone (0.2 mg/ml) applied to the inner and outer surfaces of each pinna (i.e. 0.5 mg or 2 mg AA or 2 μg PMA per ear). Mice were anaesthetised again to re-measure the ears at 1 h post-AA application and 5 h after PMA. The difference in ear swelling pre- and post-application of inflammogen for each ear was calculated, and the average for the two ears of each mouse taken. The difference in mean swelling of each test group compared to the group given vehicle alone was calculated using a general ANOVA using Dunnett's Multiple Comparison test when multiple compounds were tested in the one experiment or a two-tailed […] t-test when only one compound was tested (Prism 4, Graphpad Software). The data has been presented graphically as the mean percentage inhibition of oedema, calculated as: […]. Results

[1] = test system: human umbilical vein smooth muscle cells (HUVSMC); assay: Proliferation of human umbilical vein smooth muscle cells (MTT); format: cell-based
How it was run: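 Read-out is MTT absorbance expressed as test/control*100−100 versus FCS-stimulated untreated controls. Serum-starved smooth muscle cells (1.6×10^3/well, 20 h without FCS) got 10 μM final analogue for 1 h before 10% FCS, then grew about 5 days to control confluence.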

HPAC = assay: Anti-cancer activity, HPAC pancreatic cancer cells (MTT); format: cell-based; details: Homo sapiens, 120 h, 5 days
[2] = test system: TXA2 synthesis in RA stimulated U937 cells; assay: TXA2 synthesis in RA-stimulated U937 cells; format: cell-based, human; details: for TXA2 / TXA2 (pg): A23187; for TXA2 (pg): test compound 100 μM
Description: (§1) U937 cells were thawed and resuspended in RPM1 and 10% FCS at 2×10^5 cells per ml. The cells were incubated in 5% CO2 at 37° C. and expanded in growing culture to at least 6.4×10^7 total cells. The cells were then resuspended in fresh medium and cultured with […] (RA) at 2×10^5 cells per ml for a further 3 days (72 h). RA treated cells were washed 2× in serum-free RPM and resuspended in serum-free medium at 5×10^6 cells per ml. The cells were aliquotted into Teflon tubes at 1 ml per tube. Working stock solutions of each test compound were prepared at 0.1 mM, 1 mM and 10 mM as described above. For each test compound at each working dilution, 10 μl was added to 1 ml cells to achieve a final concentration of 0 (DMSO alone), 1, 10, and 100 μM for each test compound. Cells were incubated in triplicate with each concentration of test compound for 15 min at 37° C. After 15 min pre-incubation, each 1 ml tube of cells received 5 μl of a […] solution of the calcium ionophore A23187 (to achieve 0.5 μM A23187). Incubation at 37° C. was continued for a further 30 min. After incubation, supernatants were collected by centrifugation at 2000 rpm for 10 min and stored at −20° C. until required for assay.

[3] = test system: PGE2 synthesis in RA-stimulated U937 cells; assay: PGE2 synthesis in RA-stimulated U937 cells; format: cell-based, human
Description: as §1

IL-6 = IL-6 synthesis by mouse splenocytes (ELISA); format: cell-based, Skh-1:HR 1 (hairless) mice; details: 10 μM; 3 days
Description: Male Skh-1:HR 1 (hairless) mice, approximately six weeks old were killed by cervical dislocation. Single cell suspensions were made from the spleen and erythrocytes were lysed in buffer (0.14 M NH4Cl, 17 mM Tris, pH 7.2). The remaining splenocytes were cultured in RPMI-1640 (Gibco) supplemented with 10% (v:v) FBS, 200 mM L-glutamine, penicillin/streptomycin and […] 2-mercaptoethanol. Splenocytes were added to quadruplicate wells containing either concanavalin A (ConA, Sigma-Aldrich—0.4 μg/well), LPS (Sigma-Aldrich—1 μg/well) or no mitogen, as well 10 μM of test compound in DMSO. Samples were analysed after 3 days incubation at 37° C. in 5% CO2 in air. Methylthiazoletetrazolium (MTT) is bioreduced by viable cells into a coloured formazan product that is soluble in DMSO. Thus the quantity of formazan product is directly proportional to the number of living cells in culture, and can be measured using a spectrophotometer at 570 nm. MTT was added to each well, incubated for a further 4 hrs and then colour developed with 0.04 N HCl in isopropanol. Culture supernatants were stored after collection at −80° C. and analysed by ELISA (BD Biosciences) for IFN-γ (a Th-1 cytokine) and for T cells alone, IL-6 (a Th-2 cytokine).

| IC50 (cancer cell lines) | IC50 (HPAC) | SMILES | % Change compared with vehicle (PMA-induced ear oedema) | Change in ear thickness (mean ± SD, × 0.01 mm) (PMA-induced ear oedema) | IC50 ([1]; Homo sapiens, average over three different assays, 4-5 days, read-out: average IC50, inhibition of proliferation of HUVSMC) | TXA2 ([2]; test compound 1 μM) | TXA2 ([2]; test compound 10 μM) | TXA2 (pg) [2] | PGE2 ([3]; test compound 1 μM, A23187) | PGE2 ([3]; test compound 10 μM, A23187) | PGE2 ([3]; test compound 100 μM, A23187) | synthesis of IL-6 into the supernatant (IL-6) | effect on proliferation of HUVSMCs induced by FCS ([1]; 10 μM, 10% FCS, 5 days, FIG. 8) | effect on TXA2 synthesis ([2]; 100 μM) | effect on PGE2 synthesis [3] | PGE2 (pg) ([3]; test compound 100 μM, A23187) |
| --- | --- | --- | --- | --- | --- | --- | --- | --- | --- | --- | --- | --- | --- | --- | --- | --- |
| 5 to 20 µM | 18.2 ± 8.1 µM | Oc1ccc(C2=Cc3cc4c(cc3OC2)OCN(Cc2ccccc2)C4)cc1 [Compound 1, 4-(3-Benzyl-2,3,4,8-tetrahydrochromeno[6,7-e][1,3]oxazin-7-yl)phenol] | −9% | 28.9 ± 3.1 × 0.01 mm | 15 µM | 48.720 ± 2.927 pg | 17.421 ± 5.747 pg | 6.397 ± 0.557^a pg | 1.431 ± 0.154 pg | 0.702 ± 0.237 pg | 0.555 ± 0.064 pg |  |  |  |  |  |
| 5 to 20 µM | 18.3 ± 11 µM | CC(c1ccccc1)N1COc2cc3c(cc2C1)C=C(c1ccc(O)cc1)CO3 (stereo not shown) [Compound 2, 4-(3-(1-Phenylethyl)-2,3,4,8-tetrahydrochromeno[6,7-e][1,3]oxazin-7-yl)phenol] | −3% | 30.9 ± 2.2 × 0.01 mm |  | 30.680 ± 2.708 pg | 21.298 ± 0.914 pg | 2.313 ± 0.113^a pg | 1.303 ± 0.044 pg | 0.948 ± 0.111 pg |  | concomitant reduction | significantly inhibited the proliferation | inhibit TXA2 synthesis | inhibit PGE2 synthesis | 0.158 ± 0.027^a pg |
